According to US20240034733A1, “KRAS G12D INHIBITORS” (Mirati Therapeutics, Inc., priority 2020, published 2024):

Assays:
[1] = tested on: KRas G12D-mediated phosphorylation of ERK; test: Inhibition of KRas G12D-mediated phosphorylation of ERK in AGS cells; format: cell-based; settings: Homo sapiens; AGS cells expressing G12D, 3 hours, phospho-ERK normalized to GAPDH
Description: AGS cells (ATCC CRL-1739) expressing G12D were grown in DMEM medium supplemented with 10% fetal bovine serum, 10 mM HEPES, and Penicillin/Streptomycin. Cells were plated in tissue culture treated 96 well plates at a density of 40,000 cells/well and allowed to attach for 12-14 hours. Diluted compounds were then added in a final concentration of 0.5% DMSO. After 3 hours, the medium was removed, 150 μl of 4.0% formaldehyde was added and the plates incubated at room temperature for 20 minutes. The plates were washed with PBS, and permeabilized with 150p of ice cold 100% methanol for 10 minutes. Non-specific antibody binding to the plates was blocked using 100 μL Licor blocking buffer (Li-Cor Biotechnology, Lincoln NE) for 1 hour at room temperature.
The amount of phosho-ERK was determined using an antibody specific for the phosphorylated form of ERK and compared to the amount of GAPDH. Primary antibodies used for the detection were added as follows: Phospho-ERK (Cell Signaling cs-9101) diluted 1:500 and GAPDH (Millipore MAB374) diluted 1:5000 in Licor block+0.05% Tween 20. The plates were incubated for 2 hours at room temperature. The plates were washed with PBS+0.05% Tween 20.
Secondary antibodies used to visualize primary antibodies were added as follows: Anti-rabbit-680 diluted 1:1000 and Anti-mouse-800 diluted 1:1000 both in Licor block+0.05% Tween20, and were incubated for 1 hour at room temperature. The plates were washed with PBS +0.05% Tween 20. A 100 μl aliquot of PBS was added to each well and the plates were read on a Li-Cor Odyssey CLX plate reader phospho-ERK (Thr202/Tyr204) signal was normalized to the GAPDH signal for each well and percent of DMSO control values were calculated. IC50 values were generated using a 4-parameter fit of the dose response curve

KRas G12D = molecular target: T1, KRas G12D (Homo sapiens, UniProt P01116, G12D); test: KRas G12D Surface Plasmon Resonance (SPR) Binding Assay; settings: Biacore T200, 20° C., 1:1 binding model, read-out: KD (nM), Determination of KRas G12D KD
T1 construct: Avidin-tag (so in the source)
Description: This Example illustrates that exemplary compounds of the present invention bind to KRas G12D as measured by surface plasmon resonance (SPR).
Briefly, 1 L of 1.05×HBS-Mg buffer (262.5 mM BioUltra Hepes, pH 7.5, 157.5 mM NaCl, 105 mM MgCl2, 0.525 mM TCEP, 0.0305% Brij-35) was prepared and filter sterilized using a 0.22 μm bottle top filter. Approximately 50 mL of 1.05×HBS-Mg buffer was removed and saved for future dilutions. A 50 mL aliquot of DMSO (Sigma Aldrich DMSO Lot. #SHBK2079) was added and continued to stir for 10 minutes, creating the final 1.0×HBS-Mg buffer (250 mM BioUltra Hepes pH 7.5, 150 mM NaCl, 100 mM MgCl2, 0.5 mM TCEP, 0.03% Brij-35).
Biacore T200 instrument was primed using 1.0×HBS-Mg buffer before docking a GE Streptavidin (SA) chip and then primed two additional times prior to beginning the immobilization step. All immobilized protein mixtures were created using 3-5 mg/mL Biotinylated Avidin-tagged KRAS protein using the following immobilization settings: SA chip type, 1 flow cells per cycle, 720 second contact time, and 5 μL/min flow rate. Normalization of the detector was also performed during the immobilization step using the GE BiaNormalize solution.
All compounds were diluted to 10 mM in 100% DMSO prior to being diluted 20× in 1.05× buffer. Another 10× dilution was created using 1.0× buffer prior to performing a series of 3×dilutions to create a compound concentration curve using the following assay settings: 20° C. analysis temperature, General Settings=10 Hz data collection rate and multi-detection; Assay Steps=all set to LMW kinetics; Cycle Types=LMW kinetics (60 s contact time, 120 s dissociation time, 100 μL/min flow rate, extra wash after injection with 50% DMSO, flow path 1, 2, 3, 4); Flow path detection=2−1, 4−3). Data evaluation was performed using the Biacore T200 Evaluation software and data fit to 1:1 binding model.

[2] = molecular target: T2, GDP-loaded recombinant human KRAS G12D (Homo sapiens, UniProt P01116, G12D); test: KRas G12D Binding Assay (TR-FRET displacement of Cy5 labelled tracer); settings: 60 minute incubation at 22° C.
T2 construct: corresponding to amino acids 1:169, produced at Array BioPharma; biotin (biotinylated); made in house
Description: This Example illustrates that exemplary compounds of the present invention bind to KRas G12D and are capable of displacing a labeled tracer ligand occupying the KRas G12D binding site.
The ability of a compound to bind to KRAS G12D was measured using a TR-FRET displacement assay. Biotinylated GDP-loaded recombinant human KRAS G12D (corresponding to amino acids 1:169, produced at Array BioPharma) was incubated with a custom-made Cy5 labelled tracer, europium labelled streptavidin and compound (2% DMSO final) in buffer (50 mM HEPES [pH 7.5], 5 mM MgCl2, 0.005% Tween-20 & 1 mM DTT). After a 60 minute incubation at 22° C., the reaction was measured using a PerkinElmer EnVision multimode plate reader via TR-FRET dual wavelength detection, and the percent of control (POC) calculated using a ratiometric emission factor. […] The POC values were fit to a 4-parameter logistic curve and the IC50 value was determined as the concentration where the curve crosses 50 POC.

T2 sequence (P01116 1-169 isoform P01116-2 G12D): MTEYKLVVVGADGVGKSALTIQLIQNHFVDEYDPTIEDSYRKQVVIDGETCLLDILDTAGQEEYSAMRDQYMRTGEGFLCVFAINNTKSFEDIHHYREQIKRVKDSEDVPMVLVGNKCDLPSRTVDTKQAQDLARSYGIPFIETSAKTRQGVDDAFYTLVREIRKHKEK
T1 sequence (P01116 1-188 isoform P01116-2 G12D): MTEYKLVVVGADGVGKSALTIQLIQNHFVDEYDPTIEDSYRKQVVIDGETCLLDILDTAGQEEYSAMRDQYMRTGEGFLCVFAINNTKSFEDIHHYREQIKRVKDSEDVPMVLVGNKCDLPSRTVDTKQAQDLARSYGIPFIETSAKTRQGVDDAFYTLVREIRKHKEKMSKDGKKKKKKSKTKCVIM

| Structure (SMILES) | IC50 [1] [nM] | Kd (KRas G12D) [nM] | IC50 [2] [nM] |
| --- | --- | --- | --- |
| Fc1c(-c2cccc3cccc(Cl)c23)ccc2c(N3C[C@H]4CC[C@@H](C3)N4)nc(OCC34CCCN3CCC4)nc12 [Example 2, 4-((1R,5S)-3,8-diazabicyclo[3.2.1]octan-3-yl)-7-(8-chloronaphthalen-1-yl)-8-fluoro-2-((tetrahydro-1H-pyrrolizin-7a(5H)-yl)methoxy)quinazoline] | 4540 | 8 | 6.1 |
| CN1CCC[C@H]1COc1nc(N2C[C@H]3CC[C@@H](C2)N3)c2cc(Cl)c(-c3cc(O)cc4ccccc34)c(F)c2n1 [Example 7, 4-(4-((1R,5S)-3,8-diazabicyclo[3.2.1]octan-3-yl)-6-chloro-8-fluoro-2-(((S)-1-methylpyrrolidin-2-yl)methoxy)quinazolin-7-yl)naphthalen-2-ol] | 1420 | 9 | 11.2 |
| CN1CCC[C@H]1COc1nc(N2C[C@H]3CC[C@@H](C2)N3)c2ccc(-c3cc(O)cc4ccccc34)c(F)c2n1 [Example 8, 4-(4-((1R,5S)-3,8-diazabicyclo[3.2.1]octan-3-yl)-8-fluoro-2-(((S)-1-methylpyrrolidin-2-yl)methoxy)quinazolin-7-yl)naphthalen-2-ol] | 271 | 3 | 4.3 |
| CN1CCC[C@H]1COc1nc(N2C[C@H]3CC[C@@H](C2)N3)c2ccc(-c3cc(O)cc4ccccc34)cc2n1 [Example 10, 4-(4-((1R,5S)-3,8-diazabicyclo[3.2.1]octan-3-yl)-2-(((S)-1-methylpyrrolidin-2-yl)methoxy)quinazolin-7-yl)naphthalen-2-ol] | 5660 | 19 | 22.9 |
| CN1CCC[C@H]1COc1nc(N2CC3CCC2CN3)c2cc(Cl)c(-c3cc(O)cc4ccccc34)c(F)c2n1 (stereo partly drawn) [Example 11, 4-((7R)-4-(2,5-diazabicyclo[2.2.2]octan-2-yl)-6-chloro-8-fluoro-2-(((S)-1-methylpyrrolidin-2-yl)methoxy)quinazolin-7-yl)naphthalen-2-ol] | 2840 | 16 | 10.4 |
| CN1CCC[C@H]1COc1nc(N2CCNC3(CC3)C2)c2ccc(-c3cc(O)cc4ccccc34)c(F)c2n1 [Example 12, (S)-4-(8-fluoro-2-((1-methylpyrrolidin-2-yl)methoxy)-4-(4,7-diazaspiro[2.5]octan-7-yl)quinazolin-7-yl)naphthalen-2-ol] | 5560 | 110 |  |
| CN1CCC[C@H]1COc1nc(N2C[C@H]3CC[C@@H](C2)N3)c2ccc(-c3cccc4ccc(F)cc34)c(F)c2n1 [Example 13, 4-((1R,5S)-3,8-diazabicyclo[3.2.1]octan-3-yl)-8-fluoro-7-(7-fluoronaphthalen-1-yl)-2-(((S)-1-methylpyrrolidin-2-yl)methoxy)quinazoline] | 5560 | 78 | 61.9 |
| CN1CCC[C@H]1COc1nc(N2CC3CCC2CN3)c2cnc(-c3cc(O)cc4ccccc34)c(F)c2n1 (stereo partly drawn) [Example 14, 4-(4-(2,5-diazabicyclo[2.2.2]octan-2-yl)-8-fluoro-2-(((S)-1-methylpyrrolidin-2-yl)methoxy)pyrido[4,3-d]pyrimidin-7-yl)naphthalen-2-ol] | 8610 | 36 | 30.8 |
| CN1CCC[C@H]1COc1nc(N2C[C@H]3CC[C@@H]2CN3)c2cnc(-c3cc(O)cc4ccccc34)c(F)c2n1 [Example 15, 4-(4-((1R,4R)-2,5-diazabicyclo[2.2.2]octan-2-yl)-8-fluoro-2-(((S)-1-methylpyrrolidin-2-yl)methoxy)pyrido[4,3-d]pyrimidin-7-yl)naphthalen-2-ol] | 7120 | 93 |  |
| CN1CCC[C@H]1COc1nc2c(c(N3CC4CCC3CN4)n1)CCN(c1cc(O)cc3ccccc13)C2 (stereo partly drawn) [Example 16, 4-(4-(2,5-diazabicyclo[2.2.2]octan-2-yl)-2-(((S)-1-methylpyrrolidin-2-yl)methoxy)-5,8-dihydropyrido[3,4-d]pyrimidin-7(6H)-yl)naphthalen-2-ol] | 5950 | 300 | 152 |
| CN1CCC[C@H]1COc1nc(N2C[C@H]3CC[C@@H](C2)N3)c2cc(Oc3cccc(F)c3C#N)c(-c3cc(O)cc4ccccc34)c(F)c2n1 [Example 26, 2-((4-((1R,5S)-3,8-diazabicyclo[3.2.1]octan-3-yl)-8-fluoro-7-(3-hydroxynaphthalen-1-yl)-2-(((S)-1-methylpyrrolidin-2-yl)methoxy)quinazolin-6-yl)oxy)-6-fluorobenzonitrile] | 3540 |  | 7.4 |
| CN1C[C@H](F)C[C@H]1COc1nc(N2C[C@H]3CC[C@@H](C2)N3)c2ccc(-c3cc(O)cc4ccccc34)c(F)c2n1 [Example 29, 4-(4-((1R,5S)-3,8-diazabicyclo[3.2.1]octan-3-yl)-8-fluoro-2-(((2S,4R)-4-fluoro-1-methylpyrrolidin-2-yl)methoxy)quinazolin-7-yl)naphthalen-2-ol] | 779 | 5 | 1.8 |
| Cc1cc2[nH]ncc2c(-c2ccc3c(N4C[C@H]5CC[C@@H](C4)N5)nc(OC[C@@H]4CCCN4C)nc3c2F)c1C [Example 30, 4-((1R,5S)-3,8-diazabicyclo[3.2.1]octan-3-yl)-7-(5,6-dimethyl-1H-indazol-4-yl)-8-fluoro-2-(((S)-1-methylpyrrolidin-2-yl)methoxy)quinazoline] | 5090 | 152 | 57 |
| CN1CC(F)(F)C[C@H]1COc1nc(N2C[C@H]3CC[C@@H](C2)N3)c2ccc(-c3cc(O)cc4ccccc34)c(F)c2n1 [Example 31, 4-(4-((1R,5S)-3,8-diazabicyclo[3.2.1]octan-3-yl)-2-(((S)-4,4-difluoro-1-methylpyrrolidin-2-yl)methoxy)-8-fluoroquinazolin-7-yl)naphthalen-2-ol] | 8500 | 121 | 297 |
